The results in this text go back to ChEMBL document CHEMBL5725638, “3-substituted 5-amino-6H-thiazolo[4,5-d]pyrimidine-2,7-dione compounds for the treatment and prophylaxis of virus infection” (2018).

The target in the test is T1, Toll-like receptor 7 (Homo sapiens, UniProt Q9NYK1).
T1 sequence (Q9NYK1 whole entry): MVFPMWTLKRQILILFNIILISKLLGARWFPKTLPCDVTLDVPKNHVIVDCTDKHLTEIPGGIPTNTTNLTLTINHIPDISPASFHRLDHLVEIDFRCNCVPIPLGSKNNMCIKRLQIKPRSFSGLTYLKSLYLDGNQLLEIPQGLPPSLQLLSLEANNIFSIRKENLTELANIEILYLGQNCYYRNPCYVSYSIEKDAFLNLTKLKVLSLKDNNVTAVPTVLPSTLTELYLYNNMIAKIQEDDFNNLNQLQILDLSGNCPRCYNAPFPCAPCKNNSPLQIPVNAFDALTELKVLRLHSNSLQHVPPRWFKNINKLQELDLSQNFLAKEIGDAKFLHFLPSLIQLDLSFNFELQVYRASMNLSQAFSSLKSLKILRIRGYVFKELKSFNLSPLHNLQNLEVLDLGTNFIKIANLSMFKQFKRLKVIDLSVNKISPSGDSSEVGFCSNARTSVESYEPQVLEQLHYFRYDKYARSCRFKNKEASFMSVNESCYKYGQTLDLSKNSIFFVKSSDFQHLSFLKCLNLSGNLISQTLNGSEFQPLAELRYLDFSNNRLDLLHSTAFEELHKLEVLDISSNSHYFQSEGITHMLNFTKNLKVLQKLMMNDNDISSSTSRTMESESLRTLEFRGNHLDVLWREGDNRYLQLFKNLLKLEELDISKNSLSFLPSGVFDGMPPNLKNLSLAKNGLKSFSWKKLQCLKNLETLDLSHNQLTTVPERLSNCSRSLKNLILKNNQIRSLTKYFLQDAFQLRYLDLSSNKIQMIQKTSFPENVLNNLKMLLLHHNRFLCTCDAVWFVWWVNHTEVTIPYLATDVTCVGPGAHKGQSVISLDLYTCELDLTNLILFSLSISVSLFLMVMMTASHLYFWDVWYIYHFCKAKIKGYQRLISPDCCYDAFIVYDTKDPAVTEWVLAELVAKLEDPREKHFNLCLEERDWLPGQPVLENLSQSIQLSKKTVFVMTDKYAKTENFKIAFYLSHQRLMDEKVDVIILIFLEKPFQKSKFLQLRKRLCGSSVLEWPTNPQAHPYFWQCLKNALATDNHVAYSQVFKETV
The test can be described thus: HEK293-Blue-hTLR-7 Cells Ass: A stable HEK293-Blue-hTLR-7 cell line was purchased from InvivoGen (Cat.#: hkb-htlr7, San Diego, Calif., USA). These cells were designed for studying the stimulation of human TLR7 by monitoring the activation of NF-κB. A SEAP (secreted embryonic alkaline phosphatase) reporter gene was placed under the control of the IFN-β[…] minimal promoter fused to five NF-κB and AP-1-binding sites. The SEAP was induced by activating NF-κB and AP-1 via stimulating HEK-Blue hTLR7 cells with TLR7 ligands. Therefore the reporter expression was regulated by the NF-κB promoter upon stimulation of human TLR7 for 20 hours. The cell culture supernatant SEAP reporter activity was determined using QUANTI-Blue kit (Cat.#: rep-qb1, Invivogen, San Diego, Calif., USA) at a wavelength of 640 nm, a detection medium that turns purple or blue in the presence of alkaline phosphatase.HEK293-Blue-hTLR7 cells were incubated at a density of 250,000 ~ 450,000 cells/mL in a volume of 180 μL in a 96-well plate in Dulbecco's Modified Eagle's medium (DMEM) containing 4.5 g/L glucose, 50 U/mL penicillin, 50 […], 100 […], 2 mM L-glutamine, 10% (v/v) heat-inactivated fetal bovine serum for 24 h. […].

The EC50 is the midpoint of the concentration-response curve.

In the case of `CCC(O)[C@@H]1C[C@@H](OC(C)=O)[C@H](n2c(=O)sc3c(=O)[nH]c(N)nc32)O1` (single isomer, unassigned), the EC50 came out at 48 µM.
